Counter-ions that a name gives are not always drawn. Each block holds one compound with its values, some of them ahead of it.
How the values were obtained:
[1] = target: human vasopressin V2 receptors (Homo sapiens, UniProt P30518); test: affinity for vasopressin V2 receptors (method of Birnbaumer et al.); format: binding; conditions: tested at a concentration of 1 μM; read-out: percentage of inhibition on V2 receptors
Description: (§1) The affinity of these compounds for human vasopressin V1a receptors (method described by M. Thibonnier et al. in J. Biol. Chem. (1994), 269, pp. 3304-3310), V1b receptors (method described by T. Sugimoto et al. in J. Biol. Chem. (1994), 269, pp. 27088-27092) and V2 receptors (method described by T. Birnbaumer et al. in Nature (Lond.) (1992), 357, pp. 333-335) has also been studied. The compounds studied have little or no affinity for the V1a, V1b and V2 receptors.

[2] = target: human vasopressin V1a receptors (Homo sapiens, UniProt P37288); test: affinity for vasopressin V1a receptors (method of Thibonnier et al.); format: binding; conditions: tested at a concentration of 1 μM; read-out: percentage of inhibition on V1a receptors
human vasopressin V1a receptors, sequence (P37288 whole entry): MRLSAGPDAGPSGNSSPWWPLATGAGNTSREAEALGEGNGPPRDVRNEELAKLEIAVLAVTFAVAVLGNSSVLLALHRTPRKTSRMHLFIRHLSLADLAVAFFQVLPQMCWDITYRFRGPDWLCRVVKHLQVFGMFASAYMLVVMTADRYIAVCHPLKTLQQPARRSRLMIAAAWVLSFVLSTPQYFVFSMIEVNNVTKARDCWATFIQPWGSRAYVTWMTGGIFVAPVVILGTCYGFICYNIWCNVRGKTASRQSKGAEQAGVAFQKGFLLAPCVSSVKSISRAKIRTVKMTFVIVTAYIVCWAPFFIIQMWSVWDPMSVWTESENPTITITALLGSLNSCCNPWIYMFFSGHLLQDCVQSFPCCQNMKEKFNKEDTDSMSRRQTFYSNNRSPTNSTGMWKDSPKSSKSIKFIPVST
Description: as §1

[3] = target: T1, human uterine oxytocin receptors (Homo sapiens, UniProt P30559); test: in vitro binding test: displacement of a radioiodinated oxytocin analog in a membrane preparation; conditions: read-out: IC50 (concentration which inhibits 50% of the binding of the radioiodinated oxytocin analog to its receptors)
T1 construct: host or cells: membrane preparation
T1 sequence (P30559 1-389): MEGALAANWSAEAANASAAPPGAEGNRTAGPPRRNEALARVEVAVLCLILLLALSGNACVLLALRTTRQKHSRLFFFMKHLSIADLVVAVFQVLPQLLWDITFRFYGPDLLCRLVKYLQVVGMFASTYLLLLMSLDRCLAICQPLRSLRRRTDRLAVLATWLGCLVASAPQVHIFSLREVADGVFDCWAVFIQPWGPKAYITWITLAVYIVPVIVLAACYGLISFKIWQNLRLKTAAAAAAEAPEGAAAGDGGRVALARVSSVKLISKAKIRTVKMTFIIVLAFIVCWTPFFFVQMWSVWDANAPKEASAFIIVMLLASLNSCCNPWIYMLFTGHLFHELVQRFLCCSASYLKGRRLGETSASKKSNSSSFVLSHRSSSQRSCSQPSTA
Description: The compounds according to the invention have formed the subject of biochemical and pharmacological studies. The affinity of the compounds according to the invention for oxytocin receptors was determined in an in vitro binding test using the method described by J. Elands et al., Eur. J. Pharmacol. (1987), 147, pp. 197-207. This method consists in studying in vitro the displacement of a radioiodinated oxytocin analog at the oxytocin receptors in a membrane preparation of human uterine oxytocin receptors. The IC50 values (concentration which inhibits 50% of the binding of the radioiodinated oxytocin analog to its receptors) are low and vary from 10^−10 to 10^−6 M in the latter test.

[4] = target: T2, human vasopressin V1b receptors (Homo sapiens, UniProt P47901); test: affinity for vasopressin V1b receptors (method of Sugimoto et al.); format: binding; conditions: tested at a concentration of 1 μM; read-out: percentage of inhibition on V1b receptors
T2 sequence (P47901 1-424): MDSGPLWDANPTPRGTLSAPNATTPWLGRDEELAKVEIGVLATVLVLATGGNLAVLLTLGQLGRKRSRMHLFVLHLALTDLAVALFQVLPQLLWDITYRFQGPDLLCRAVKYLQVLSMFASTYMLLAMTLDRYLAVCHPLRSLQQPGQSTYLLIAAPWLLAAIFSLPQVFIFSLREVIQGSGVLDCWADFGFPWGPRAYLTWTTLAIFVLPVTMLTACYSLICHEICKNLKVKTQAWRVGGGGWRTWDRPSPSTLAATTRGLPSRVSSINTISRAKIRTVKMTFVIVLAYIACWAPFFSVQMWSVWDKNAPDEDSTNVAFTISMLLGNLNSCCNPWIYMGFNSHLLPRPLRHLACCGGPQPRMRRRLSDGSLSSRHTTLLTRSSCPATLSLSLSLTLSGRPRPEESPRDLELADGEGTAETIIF
Description: as §1

[5] = target: T3, cells expressing human oxytocin receptors (Homo sapiens, UniProt P30559); test: measurement of intracellular calcium (agonist or antagonist nature); format: cell-based
T3 sequence (P30559 1-389): T1 sequence (P30559 1-389)
Description: The agonist or antagonist nature of the compounds is determined in vitro in a test for the measurement of intracellular calcium with respect to cells expressing human oxytocin receptors according to the general technique described in Am. J. Physiol., 268, and Heart Circ. Physiol. (1995), 37, H404-H410.

human vasopressin V2 receptors, sequence (P30518 whole entry): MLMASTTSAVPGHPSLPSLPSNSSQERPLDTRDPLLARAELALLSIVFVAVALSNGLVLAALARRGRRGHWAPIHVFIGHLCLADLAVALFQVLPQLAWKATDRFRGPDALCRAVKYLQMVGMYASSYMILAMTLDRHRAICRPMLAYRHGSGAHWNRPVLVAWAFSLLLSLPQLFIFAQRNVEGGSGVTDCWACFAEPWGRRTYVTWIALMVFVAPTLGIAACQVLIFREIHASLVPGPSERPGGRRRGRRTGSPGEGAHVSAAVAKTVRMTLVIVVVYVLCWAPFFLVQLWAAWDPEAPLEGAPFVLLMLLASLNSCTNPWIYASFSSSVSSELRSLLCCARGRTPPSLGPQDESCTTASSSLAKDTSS

SMILES: CCN(Cc1ccc[n+]([O-])c1)C(=O)c1ccc(Cl)c(C2(C)C(=O)N(Cc3ccc(OC)cc3OC)c3ccc(Cl)cc32)c1 (centres unmarked) [example 7, 4-chloro-3-[5-chloro-1-(2,4-dimethoxybenzyl)-3-methyl-2-oxo-2,3-dihydro-1H-indol-3-yl]-N-ethyl-N-(1-oxypyrid-3-ylmethyl)benzamide hydrochloride]
inhibition at 1 µM [1]: < 50%
inhibition at 1 µM [2]: < 50%
IC50 [3]: < 50 nM
inhibition at 1 µM [4]: < 50%

SMILES: CCN(Cc1ccc[n+]([O-])c1)C(=O)c1ccc(Cl)c(C2(C)C(=O)N(Cc3ccc(OC)cc3OC)c3ccc(Cl)cc32)c1 (centres unmarked) (as salt: hydrochloride) [example 7, 4-chloro-3-[5-chloro-1-(2,4-dimethoxybenzyl)-3-methyl-2-oxo-2,3-dihydro-1H-indol-3-yl]-N-ethyl-N-(1-oxypyrid-3-ylmethyl)benzamide hydrochloride]
melting point: 176 °C

IC50 [5]: 3 nM
agonist or antagonist nature [5]: antagonist
SMILES: CCN(Cc1ccc[n+]([C@@H]2O[C@H](C(=O)O)[C@@H](O)[C@H](O)[C@H]2O)c1)C(=O)c1ccc(Cl)c(C2(C)C(=O)N(Cc3ccc(OC)cc3OC)c3ccc(Cl)cc32)c1 (stereo partly drawn) [example 3, 1-(β-D-Glucopyranuronosyl)-3-[({4-chloro-3-[5-chloro-1-(2,4-dimethoxybenzyl)-3-methyl-2-oxo-2,3-dihydro-1H-indol-3-yl]benzoyl}(ethyl)amino)methyl]pyridinium chloride]

IC50 [3]: 6.9 nM
SMILES: CCN(Cc1ccc[n+](CC(=O)O)c1)C(=O)c1ccc(Cl)c(C2(C)C(=O)N(Cc3ccc(OC)cc3OC)c3ccc(Cl)cc32)c1 (centres unmarked) [example 2, 1-Carboxymethyl-3-[({4-chloro-3-[5-chloro-1-(2,4-dimethoxybenzyl)-3-methyl-2-oxo-2,3-dihydro-1H-indol-3-yl]benzoyl}(ethyl)amino)methyl]pyridinium chloride]

Reference: patent US7488743B2, “Indolin-2-one pyridine derivatives, preparation and therapeutic use thereof” (Sanofi-Aventis, priority 2004, dated 2009)
